The values that follow come from PubChem BioAssay AID330 (DTP/NCI, 2004).

The test deals with P388 leukemia ip, CD2F1 mice, survival T/C. Description: NCI In Vivo Anticancer Drug Screen. Data for tumor model P388 Leukemia (intraperitoneal) in CD2F1 (CDF1) mice. The settings on record: endpoint: median survival time, higher = longer survival. The essentials:
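Mice carrying the transplanted tumor received test compound or vehicle. Survival was recorded in each group, and the value is the treated-group measurement divided by that of the vehicle-treated control group.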

The mark [1] stands for this setting: dose: 50.0 mg/kg/injection, schedule: Q01DX009 (ip), vehicle: Klucel (hydroxypropylcellulose) (HPC).
The mark [2] stands for this setting: dose: 100.0 mg/kg/injection, schedule: Q01DX009 (ip), vehicle: Klucel (hydroxypropylcellulose) (HPC).
Where [3] appears, read: dose: 200.0 mg/kg/injection, schedule: Q01DX009 (ip), vehicle: Klucel (hydroxypropylcellulose) (HPC).
The mark [4] stands for this setting: dose: 50.0 mg/kg/injection, schedule: Q01DX009 (ip), vehicle: saline.
The mark [5] stands for this setting: dose: 100.0 mg/kg/injection, schedule: Q01DX009 (ip), vehicle: saline.
[6] abbreviates: dose: 200.0 mg/kg/injection, schedule: Q01DX009 (ip), vehicle: saline.
Setting [7] is: dose: 50.0 mg/kg/injection, schedule: Q04DX003 (ip), vehicle: saline with Tween-80.
Setting [8] is: dose: 50.0 mg/kg/injection, schedule: Q01DX005 (ip), vehicle: saline.
[9] abbreviates: dose: 100.0 mg/kg/injection, schedule: Q01DX005 (ip), vehicle: saline.
Setting [10] is: dose: 50.0 mg/kg/injection, schedule: Q01DX009 (ip), vehicle: saline with Tween-80.
Setting [11] is: dose: 100.0 mg/kg/injection, schedule: Q01DX009 (ip), vehicle: saline with Tween-80.
The mark [12] stands for this setting: dose: 200.0 mg/kg/injection, schedule: Q01DX009 (ip), vehicle: saline with Tween-80.
Setting [13] is: dose: 200.0 mg/kg/injection, schedule: Q04DX003 (ip), vehicle: saline with Tween-80.
Setting [14] is: dose: 400.0 mg/kg/injection, schedule: Q04DX003 (ip), vehicle: saline with Tween-80.
Where [15] appears, read: dose: 60.0 mg/kg/injection, schedule: Q01DX005 (ip), vehicle: saline with Tween-80.
The mark [16] stands for this setting: dose: 120.0 mg/kg/injection, schedule: Q01DX005 (ip), vehicle: saline with Tween-80.
[17] abbreviates: dose: 240.0 mg/kg/injection, schedule: Q01DX005 (ip), vehicle: saline with Tween-80.
[18] abbreviates: dose: 50.0 mg/kg/injection, schedule: Q01DX005 (ip), vehicle: Klucel (hydroxypropylcellulose) (HPC).
Where [19] appears, read: dose: 100.0 mg/kg/injection, schedule: Q01DX005 (ip), vehicle: Klucel (hydroxypropylcellulose) (HPC).
The mark [20] stands for this setting: dose: 200.0 mg/kg/injection, schedule: Q01DX005 (ip), vehicle: Klucel (hydroxypropylcellulose) (HPC).
The mark [21] stands for this setting: dose: 100.0 mg/kg/injection, schedule: Q04DX003 (ip), vehicle: saline.
The mark [22] stands for this setting: dose: 200.0 mg/kg/injection, schedule: Q01DX005 (ip), vehicle: saline.

Several values for one entry are separate records, joined by “and”; a condition that tells them apart may be missing. Identical values can stand only once. Toxic doses and inconclusive results are not listed. Peptide text beside a SMILES is read from it.

On to `Nc1nc2c(cnn2C2CCCO2)c(=O)[nH]1` (stereo not drawn), for which the T/C by setting is: (dose: 100.0 mg/kg/injection, schedule: Q01DX001 (ip), vehicle: saline with Tween-80) 100 % of control; (dose: 200.0 mg/kg/injection, schedule: Q01DX001 (ip), vehicle: saline with Tween-80) 106 % of control; (dose: 400.0 mg/kg/injection, schedule: Q01DX001 (ip), vehicle: saline with Tween-80) 96 % of control.
For the compound `CC1CN2C(=O)C1(c1ccccc1)C(=O)NC2=S` (stereo not drawn), the T/C was 98 % of control under setting [1], 107 % of control under setting [2] and 100 % of control under setting [3].
In the case of `CN(C)P(=O)(N(C)C)N(C)CO`, the T/C runs as follows: under setting [4], 98 % of control and 100 % of control; under setting [5], 104 % of control and 110 % of control; under setting [6], 121 % of control and 122 % of control; (dose: 400.0 mg/kg/injection, schedule: Q01DX009 (ip), vehicle: saline) 86 % of control.
As for `CC(C)(C#N)C#N`, the T/C reads like this: (dose: 25.0 mg/kg/injection, schedule: Q04DX003 (ip), vehicle: saline with Tween-80) 100 % of control; under setting [7], 100 % of control.
Regarding `N#CN=C(N)N=P(c1ccccc1)(c1ccccc1)c1ccccc1`, the T/C is 97 % of control (dose: 100.0 mg/kg/injection, schedule: Q01DX001 (ip), vehicle: Klucel (hydroxypropylcellulose) (HPC)); 100 % of control (dose: 200.0 mg/kg/injection, schedule: Q01DX001 (ip), vehicle: Klucel (hydroxypropylcellulose) (HPC)); 91 % of control (dose: 400.0 mg/kg/injection, schedule: Q01DX001 (ip), vehicle: Klucel (hydroxypropylcellulose) (HPC)).
As to `CSC(=S)N/N=C\c1c(CO)cnc(C)c1O`, the T/C (dose: 100.0 mg/kg/injection, schedule: Q04DX002 (ip), vehicle: saline with Tween-80) was 116 % of control and the T/C (dose: 400.0 mg/kg/injection, schedule: Q04DX002 (ip), vehicle: saline with Tween-80) is 113 % of control.
For `CCC(C)NC1(N(C)C)N=C(N(C)C)N=C(N(C)C)O1` (stereo not drawn), the T/C is 101 % of control under setting [8] and 99 % of control under setting [9].
Consider `O=C1OCC/C1=C1/NCCNC1=O`, for which the T/C runs as follows: under setting [10], 91 % of control; under setting [11], 116 % of control; under setting [12], 109 % of control.
Turning to `COP(=O)(OC)C1(C)CO1` (stereo not drawn), the T/C by setting is: under setting [1], 87 % of control; under setting [2], 91 % of control; under setting [3], 86 % of control.
Regarding `COc1cc(C=NCc2ccccc2)cc(OC)c1O`, the T/C reads like this: under setting [7], 103 % of control; under setting [13], 97 % of control; under setting [14], 97 % of control.
Consider `O=C(CC1NCCCC1O)Cn1cnc2ccccc2c1=O` (stereo not drawn), for which the T/C (dose: 1.0 mg/kg/injection, schedule: Q01DX009 (ip), vehicle: distilled water + alcohol) was 116 % of control; the T/C (dose: 2.0 mg/kg/injection, schedule: Q01DX009 (ip), vehicle: distilled water + alcohol) was 107 % of control; the T/C (dose: 4.0 mg/kg/injection, schedule: Q01DX009 (ip), vehicle: distilled water + alcohol) is 107 % of control.
For `CCOC(=O)C(=O)C1CC(c2ccccc2)=NNC1=O` (stereo not drawn), the T/C is 99 % of control under setting [10], 103 % of control under setting [11] and 96 % of control under setting [12].
For `NCCSCC(N)C(=O)O` (stereo not drawn), the T/C was 102 % of control (dose: 25.0 mg/kg/injection, schedule: Q01DX009 (ip), vehicle: saline); 103 % of control under setting [4]; 99 % of control under setting [5]; 109 % of control under setting [6].
Consider `Cc1c(O)cccc1O`, for which, under setting [5], the T/C was 105 % of control.
As for `CC(C)n1cnc2c(Cl)ncnc21`, the T/C by setting is: (dose: 25.0 mg/kg/injection, schedule: Q01DX009 (ip), vehicle: saline with Tween-80) 100 % of control; under setting [10], 104 % of control; under setting [11], 95 % of control.
For the compound `Cc1ccc(S(=O)(=O)CC(O)(C(C)C)C(C)C)cc1`, the T/C is 103 % of control (dose: 50.0 mg/kg/injection, schedule: Q01DX005 (ip), vehicle: saline with Tween-80); 102 % of control (dose: 100.0 mg/kg/injection, schedule: Q01DX005 (ip), vehicle: saline with Tween-80); 102 % of control (dose: 200.0 mg/kg/injection, schedule: Q01DX005 (ip), vehicle: saline with Tween-80).
For the compound `CCOC(=O)C(C)NC(=O)OCc1ccccc1` (stereo not drawn), the T/C by setting is: under setting [15], 101 % of control; under setting [16], 112 % of control; under setting [17], 116 % of control.
In the case of `CN(C)c1nc(=O)c(-c2ccccc2)c(-c2ccccc2)o1`, the T/C is, setting by setting: (dose: 100.0 mg/kg/injection, schedule: Q04DX002 (ip), vehicle: Klucel (hydroxypropylcellulose) (HPC)) 103 % of control; (dose: 200.0 mg/kg/injection, schedule: Q04DX002 (ip), vehicle: Klucel (hydroxypropylcellulose) (HPC)) 106 % of control; (dose: 400.0 mg/kg/injection, schedule: Q04DX002 (ip), vehicle: Klucel (hydroxypropylcellulose) (HPC)) 103 % of control.
For `O=C(Cc1nc2ccccc2[nH]1)N/N=C1\SCC(=O)N1c1ccc(Cl)cc1`, the T/C under setting [18] is 103 % of control, the T/C under setting [19] is 108 % of control and the T/C under setting [20] is 104 % of control.
In the same order, the values of `CCC(C)C(NC(=O)C(Cc1ccccc1)NC(=O)C(N)CSC)C(N)=O` (stereo not drawn) (H-Cys(Me)-Phe-Ile-NH2; configuration not given here) are 102 % of control, 99 % of control and 99 % of control.
For the compound `OCCN1CCN(CCCOC2=Nc3ccccc3O/C2=C/c2ccccc2)CC1`, the T/C reads like this: (dose: 25.0 mg/kg/injection, schedule: Q04DX003 (ip), vehicle: saline) 100 % of control; (dose: 50.0 mg/kg/injection, schedule: Q04DX003 (ip), vehicle: saline) 100 % of control; under setting [21], 98 % of control and 101 % of control.
In the case of `CC1(C)N=C(N)N=C(N)N1c1ccc(CNC(=O)Nc2ccc(S(=O)(=O)F)cc2)cc1`, the T/C under setting [21] was 172 % of control; the T/C (dose: 200.0 mg/kg/injection, schedule: Q04DX003 (ip), vehicle: saline) was 181 % of control; the T/C (dose: 400.0 mg/kg/injection, schedule: Q04DX003 (ip), vehicle: saline) is 90 % of control.
Consider `Cc1ocnc1Cc1ccc(O)c(O)c1`, for which the T/C was 101 % of control (dose: 100.0 mg/kg/injection, schedule: Q01DX001 (ip), vehicle: saline); 96 % of control (dose: 200.0 mg/kg/injection, schedule: Q01DX001 (ip), vehicle: saline); 98 % of control (dose: 400.0 mg/kg/injection, schedule: Q01DX001 (ip), vehicle: saline).
As for `O=C1CC(=O)N2C=CC=CC2=N1`, the T/C is 101 % of control under setting [4] and 91 % of control under setting [6].
Turning to `NC(N)=NS(=O)(=O)c1ccc(N=NC2C(=O)N(c3ccc(Cl)cc3)C(=S)N(c3ccc(Cl)cc3)C2=O)cc1`, the T/C (dose: 25.0 mg/kg/injection, schedule: Q01DX005 (ip), vehicle: saline) was 103 % of control; the T/C under setting [8] is 106 % of control and 117 % of control; the T/C under setting [9] is 104 % of control and 124 % of control; the T/C under setting [22] is 108 % of control.
Regarding `COCC1(C)CCCC2(C)C3=CC(=O)CCC3CCC12` (stereo not drawn), the T/C by setting is: (dose: 100.0 mg/kg/injection, schedule: Q04DX003 (ip), vehicle: saline with Tween-80) 100 % of control; under setting [13], 108 % of control; under setting [14], 95 % of control.
Take `COc1ncnc2c1ccn2C1OC(CO)C(O)C1O` (stereo not drawn): the T/C (dose: 6.25 mg/kg/injection, schedule: Q01DX005 (ip), vehicle: Klucel (hydroxypropylcellulose) (HPC)) was 107 % of control and the T/C (dose: 12.5 mg/kg/injection, schedule: Q01DX005 (ip), vehicle: Klucel (hydroxypropylcellulose) (HPC)) was 89 % of control.
For the compound `Nc1ccc2c(c1)Oc1ccc(N)cc1O2`, the T/C is 102 % of control under setting [15], 100 % of control under setting [16] and 106 % of control under setting [17].
As to `c1ccc(C23CCCCC2=Nc2ccccc23)cc1` (stereo not drawn), the T/C by setting is: under setting [8], 104 % of control; under setting [9], 105 % of control; under setting [22], 107 % of control.
